The values below come from patent US20040259079A1, “Substantially complete ribozyme libraries” (priority 1998, published 2004).

Where two headings read alike, the source gives them in different places.

As a reminder, the inhibition is the percentage by which the read-out fell short of the control.

Common to all, as to type: cell-based
For assay [1], the system named is 5′TK cells (HeLa with HCV IRES-tk reporter). The experiment in a line: Gancyclovir sensitivity of 5′TK reporter cells, surviving colonies. Further details: key to number of surviving cell colonies: TMTC = too many colonies to count. The text has this: For gene identification, this reporter is stably transfected into HeLa cells (where HCV IRES activity has already been documented using hygromycin selection (FIG. 23). This “parental” cell population is called 5′TK.
Expression of the tk gene in these cells via the IRES confers sensitivity to the toxic effects of gancyclovir. Introduction of a ribozyme that inhibits expression of a cellular factor involved in IRES translation would result in a loss of tk expression and this cell would become gancyclovir resistant (see FIG. 23). As a control, a similar reporter plasmid was constructed without the IRES (or with a non-functioning mutant IRES), to verify that tk expression is IRES-dependent. To facilitate selection of the correct ribozyme from the library, it was necessary to start with a concentration of gancyclovir that effectively kills all parental cells, thus assuring a low background of false positives. To this end, 7.5×10^5 5′TK cells were exposed to various concentrations of gancyclovir and the number of surviving cell colonies is shown below. Due to anticipated heterogeneity in the original parental population, individual cell clones of the parental were also isolated and gancyclovir sensitivity was assayed as shown below in Table 12.

Assay [2] relates to HIV. The experiment in a line: HIV challenge of stable Molt4/8 cell lines, P24 production (SAVA). The note with it: for % inhibition of HIV replication: Table 19, U5 ribozyme from RNA polymerase III promoters, P24 at 7 days, vs ALNL-6 control. The method, then: Promoter efficacy was measured by using them to express a ribozyme against the US region of HIV and measuring the resulting anti-HIV effect for each promoter. […] The HIV protease inhibitor, indinavir, was included in these experiments as a positive control at 10 and 100 nM concentrations.

In assay [3] the test system is 2008 cell line (ovarian cell line sensitive to cisplatin). The experiment in a line: Cisplatin selection of vector or library transfected cells, surviving colonies. On the procedure:
Approximately 2×10^7 of the 2008 cell line (ovarian cell line sensitive to cisplatin) and UMscc10b were transfected by 200 μg of pAAV6Clib described in Example 2(A) using lipofectamine. The transfection efficiencies were from 27% to 35% by eGFP expression.
After transfection, about 5.4×10^6 to 7×10^6 of cells (1.5 to 1.9 of library equivalent ) containing library DNA were selected by multiple rounds of addition of cisplatin at increasing concentrations. […] Colonies derived from the library transfected cells growing out of high concentration of cisplatin were expanded.
To confirm the library transfected cells after selection are indeed more resistant to cisplatin than either the vector transfected or parental 2008 cells, we compared the killing curve of the cisplatin of there three cell population. […] Ribozyme sequences were rescued from the library transfected cells which were selected at high concentration were rescued by PCR by the method described in Example D and identified by sequencing. After confirming the function of ribozymes rescued from the resistant cells, we will identify genes controlling cisplatin sensitivity again based on the sequence of the ribozyme binding arms and GUC by the methods described in the next example.

Assay [4] has as its system A549 and HeLa cells. The experiment in a line: Puromycin selection of transiently transfected cells. The note with it: cells receiving puromycin resistance genes (pPur); 600ng/ml puromycin. On the procedure:
Drug selection is typically used to obtain cells which stably express the drug resistance gene; however, we have found conditions under which cells transfected with puromycin-expressing vectors can survive for several days in the presence of puromycin, even when not stably transfected or transduced. During the same time period, untransfected cells are rapidly killed by the drug. Plasmids encoding puromycin resistance genes (pPur) were transfected into A549 and HeLa cells, and 600ng/ml puromycin was added to the culture medium. As a control, cells were transfected with plasmids lacking puromycin resistance genes (AMFT). The number of cells was determined at 1-day intervals following transfection. Cells lacking the puromycin resistance gene were killed within 2 or 3 days after the addition of puromycin, whereas cells receiving puromycin resistance genes survived as long as 7-9 days (FIG. 27). Target validation could therefore be performed on these transiently transfected cells between 2-9 days following puromycin selection. Other drugs which rapidly kill cells can also be employed in this type of experiment.

Assay [5] relates to melanoma cell line G-361. Description: TRAIL killing of G-361 cells. Conditions: 200 ng/ml TRAIL; 2 days after adding; most efficient condition. The method, then:
Selection of ribozymes (from the Rz library) capable of blocking TRAIL-induced apoptosis was investigated in the melanoma cell line G-361 (ATCC #CRL-1424). To determine their initial sensitivity to TRAIL, G-361 cells were plated at a density of 1×10^4 cells/cm^2. Recombinant TRAIL (Alexis Biochemicals) was applied at concentrations between 10 and 200 ng/ml for anywhere from 16 hours to 2 days.

For `Nc1nc(O)c2ncn(COC(CO)CO)c2n1` [Gancyclovir, gancyclovir], the “number of surviving cell colonies” value in assay [1] (Clone 1, gancyclovir 20 μM) was 20; in assay [1] (Clone 1, gancyclovir 40 μM), 4; in assay [1] (Clone 1, gancyclovir 80 μM), 0; in assay [1] (Clone 2, gancyclovir 20 μM), 0; in assay [1] (Clone 2, gancyclovir 40 μM) it was 0; in assay [1] (Clone 2, gancyclovir 80 μM), 0. Further, the “number of surviving cell colonies” value in assay [1] (Clone 3, gancyclovir 20 μM) was 0; in assay [1] (Clone 3, gancyclovir 40 μM), 0; in assay [1] (Clone 3, gancyclovir 80 μM), 0; in assay [1] (Clone 4, gancyclovir 20 μM) it was “TMTC”; in assay [1] (Clone 4, gancyclovir 40 μM), “TMTC”; in assay [1] (Clone 4, gancyclovir 80 μM), 60. The “number of surviving cell colonies” value in assay [1] (Clone 5, gancyclovir 20 μM) came out at 0; in assay [1] (Clone 5, gancyclovir 40 μM), 0; in assay [1] (Clone 5, gancyclovir 80 μM) it was 0; in assay [1] (Parental 5′TK, gancyclovir 4 μM, 7.5×10^5 cells exposed) it was 109; in assay [1] (Parental 5′TK, gancyclovir 8 μM), 38; in assay [1] (Parental 5′TK, gancyclovir 12 μM) it was 17. Besides, the “number of surviving cell colonies” value in assay [1] (Parental 5′TK, gancyclovir 16 μM) is recorded as 15; in assay [1] (Parental 5′TK, gancyclovir 20 μM), 9; in assay [1] (Parental 5′TK, gancyclovir 40 μM) it was 7; in assay [1] (Parental 5′TK, gancyclovir 60 μM), 2; in assay [1] (Parental 5′TK, gancyclovir 80 μM) it was 2; in assay [1] (Parental 5′TK, gancyclovir 100 μM), 1. Besides, the “sensitivity to gancyclovir (in words)” value in assay [1] (individual clones #2, 3 and 5, as low as 20 μM) is “highly sensitive”.

Take Alanine: the “% inhibition of HIV replication” value in assay [2] (MOI 0.02) turned out to be 75.7 ± 21%; in assay [2] (MOI 0.04), 71.0 ± 23%; in assay [2] (MOI 0.08), 8.7 ± 24%.

Take `N.N.[Cl][Pt][Cl]` [cisplatin]: the “% of surviving colonies” value worked out at 18.4% in assay [3] (Library transfected cells (pAAV6Clib), cisplatin 4 uM, after multiple rounds of selection); 10.3% in assay [3] (Library transfected cells, cisplatin 5 uM); 5.2% in assay [3] (Library transfected cells, cisplatin 6 uM); 2.3% in assay [3] (Library transfected cells, cisplatin 7 uM); 0% in assay [3] (Library transfected cells, cisplatin 8 uM); 2.14% in assay [3] (vector transfected cells, cisplatin 4 uM, after multiple rounds of selection). Also, the “% of surviving colonies” value is 0.97% in assay [3] (vector transfected cells, cisplatin 5 uM); 0.79% in assay [3] (vector transfected cells, cisplatin 6 uM); 0% in assay [3] (vector transfected cells, cisplatin 7 uM); 0% in assay [3] (vector transfected cells, cisplatin 8 uM).

As for `CC(C)(C)NC(=O)[C@@H]1CN(Cc2cccnc2)CCN1C[C@@H](O)C[C@@H](Cc1ccccc1)C(=O)N[C@H]1c2ccccc2C[C@H]1O` [indinavir], the inhibition at 0.01 µM in assay [2] (Human immunodeficiency virus 1, MOLT-4, Table 19, positive control at 10 nM, MOI 0.02, read-out: % inhibition of HIV replication) stood at 94.7 ± 2.8%; in assay [2] (Human immunodeficiency virus 1, MOLT-4, Table 19, positive control at 10 nM, MOI 0.04, read-out: % inhibition of HIV replication), 85.7 ± 4%; in assay [2] (Human immunodeficiency virus 1, MOLT-4, Table 19, positive control at 10 nM, MOI 0.08, read-out: % inhibition of HIV replication), 61.6 ± 9.5%; in assay [2] (Human immunodeficiency virus 1, MOLT-4, Table 20, positive control at 10 nM, MOI 0.02, read-out: % inhibition (anti-HIV effect)), 81.3 ± 1.2%; in assay [2] (Human immunodeficiency virus 1, MOLT-4, Table 20, positive control at 10 nM, MOI 0.04, read-out: % inhibition (anti-HIV effect)), 70.9 ± 2.1%; in assay [2] (Human immunodeficiency virus 1, MOLT-4, Table 20, positive control at 10 nM, MOI 0.08, read-out: % inhibition (anti-HIV effect)), 57.8 ± 4.8%. In addition, the inhibition at 0.01 µM in assay [2] (Human immunodeficiency virus 1, MOLT-4, Table 22, 10 nM, MOI 0.02, read-out: % inhibition) came out at 74.8 ± 1.5%; in assay [2] (Human immunodeficiency virus 1, MOLT-4, Table 22, 10 nM, MOI 0.04, read-out: % inhibition) it was 73.9 ± 3.6%; in assay [2] (Human immunodeficiency virus 1, MOLT-4, Table 22, 10 nM, MOI 0.08, read-out: % inhibition) it was 68.8 ± 4.5%. In addition, the inhibition at 0.1 µM in assay [2] (Human immunodeficiency virus 1, MOLT-4, Table 19, positive control at 100 nM, MOI 0.02, read-out: % inhibition of HIV replication) stood at 97.8 ± 1.7%; in assay [2] (Human immunodeficiency virus 1, MOLT-4, Table 19, positive control at 100 nM, MOI 0.04, read-out: % inhibition of HIV replication), 95.9 ± 0.2%; in assay [2] (Human immunodeficiency virus 1, MOLT-4, Table 19, positive control at 100 nM, MOI 0.08, read-out: % inhibition of HIV replication), 89.5 ± 1.2%; in assay [2] (Human immunodeficiency virus 1, MOLT-4, Table 20, positive control at 100 nM, MOI 0.02, read-out: % inhibition (anti-HIV effect)), 89.1 ± 0.5%; in assay [2] (Human immunodeficiency virus 1, MOLT-4, Table 20, positive control at 100 nM, MOI 0.04, read-out: % inhibition (anti-HIV effect)) it was 86.1 ± 1.9%; in assay [2] (Human immunodeficiency virus 1, MOLT-4, Table 20, positive control at 100 nM, MOI 0.08, read-out: % inhibition (anti-HIV effect)) it was 82 ± 1.2%. The inhibition at 0.1 µM in assay [2] (Human immunodeficiency virus 1, MOLT-4, Table 22, 100 nM, MOI 0.02, read-out: % inhibition) amounted to 98.5 ± 0.5%; in assay [2] (Human immunodeficiency virus 1, MOLT-4, Table 22, 100 nM, MOI 0.04, read-out: % inhibition), 95.5 ± 0.6%; in assay [2] (Human immunodeficiency virus 1, MOLT-4, Table 22, 100 nM, MOI 0.08, read-out: % inhibition), 93.3 ± 0.4%.

Consider `COc1ccc(C[C@H](N)C(=O)N[C@H]2[C@@H](O)[C@H](n3cnc4c(N(C)C)ncnc43)O[C@@H]2CO)cc1` [puromycin], for which, in assay [4], the “survival time in the presence of puromycin” value was 7 to 9 days.

Regarding Serine, the figures for the “% inhibition of HIV replication” value in assay [2] (MOI 0.02), in assay [2] (MOI 0.04) and in assay [2] (MOI 0.08) were 96.6%, 91.8% and 82.0%, respectively.

B1: TRAIL: Recombinant TRAIL (Alexis Biochemicals), death receptor ligand (protein, UniProt P50591 1-281, looked up)
Tumor necrosis factor ligand …: MAMMEVQGGPSLGQTCVLIVIFTVLLQSLCVAVTYVYFTNELKQMQDKYSKSGIACFLKEDDSYWDPNDEESMNSPCWQVKWQLRQLVRKMILRTSEETISTVQEKQQNISPLVRERGPQRVAAHITGTRGRSNTLSSPNSKNEKALGRKINSWESSRSGHSFLSNLHLRNGELVIHEKGFYYIYSQTYFRFQEEIKENTKNDKQMVQYIYKYTSYPDPILLMKSARNSCWSKDAEYGLYSIYQGGIFELKENDRIFVSVTNEHLIDMDHEASFFGAFLVG
For B1, in assay [5], the “killing of G-361 cells” value is listed as less than 100%.
